{"source": "ChEMBL document CHEMBL3085706", "about": "“Scorpiand-like azamacrocycles prevent the chronic establishment of Trypanosoma cruzi in a murine model” (Eur J Med Chem, 2013)", "key": {"Trypanosoma cruzi [1]": {"tested_on": "Trypanosoma cruzi", "test": "Trypanocidal activity against extracellular trypomastigote form of Trypanosoma cruzi IRHOD/CO/2008/SN3 after 24 hrs by Neubauer hemocytometric analysis", "format": "functional, organism-based", "details": "IRHOD/CO/2008/SN3, 24 h"}, "Trypanosoma cruzi [2]": {"tested_on": "Trypanosoma cruzi", "test": "Trypanocidal activity against intracellular amastigote form of Trypanosoma cruzi IRHOD/CO/2008/SN3 infected in African green monkey Vero cells after 72 hrs by Giemsa staining assay", "format": "functional, organism-based", "details": "IRHOD/CO/2008/SN3, Vero"}, "Trypanosoma cruzi [3]": {"tested_on": "Trypanosoma cruzi", "test": "Trypanocidal activity against extracellular epimastigote form of Trypanosoma cruzi IRHOD/CO/2008/SN3 after 72 hrs by Neubauer hemocytometric analysis", "format": "functional, organism-based", "details": "IRHOD/CO/2008/SN3, 72 h"}, "Trypanosoma cruzi [4]": {"tested_on": "Trypanosoma cruzi", "test": "Trypanocidal activity against epimastigote form of Trypanosoma cruzi IRHOD/CO/2008/SN3 assessed as induction of ethanol production at IC25 after 96 hrs by NMR spectra analysis", "format": "functional, organism-based"}, "[5]": {"test": "Inhibition of Escherichia coli Mn-SOD assessed as reduction of nitrobluetetrazolium measured for 10 mins by spectrophotometric analysis"}, "Trypanosoma cruzi [6]": {"tested_on": "Trypanosoma cruzi", "test": "Inhibition of Fe-SOD in Trypanosoma cruzi IRHOD/CO/2008/SN3 epimastigotes assessed as reduction of nitrobluetetrazolium at 12.5 to 25 uM measured for 10 mins by spectrophotometric analysis relative to control"}, "Trypanosoma cruzi [7]": {"tested_on": "Trypanosoma cruzi", "test": "Trypanocidal activity against epimastigote form of Trypanosoma cruzi IRHOD/CO/2008/SN3 assessed as dispersed cytoplasm at IC25 after 96 hrs by transmission electron microscopic analysis", "format": "functional, organism-based"}, "Trypanosoma cruzi [8]": {"tested_on": "Trypanosoma cruzi", "test": "Trypanocidal activity against epimastigote form of Trypanosoma cruzi IRHOD/CO/2008/SN3 assessed as empty mitochondria at IC25 after 96 hrs by transmission electron microscopic analysis", "format": "functional, organism-based"}, "Trypanosoma cruzi [9]": {"tested_on": "Trypanosoma cruzi", "test": "Trypanocidal activity against epimastigote form of Trypanosoma cruzi IRHOD/CO/2008/SN3 assessed as abundant larger acidocalcisomes at IC25 after 96 hrs by transmission electron microscopic analysis", "format": "functional, organism-based"}, "Trypanosoma cruzi [10]": {"tested_on": "Trypanosoma cruzi", "test": "Trypanocidal activity against epimastigote form of Trypanosoma cruzi IRHOD/CO/2008/SN3 assessed as appearance of large vacuoles at IC25 after 96 hrs by transmission electron microscopic analysis", "format": "functional, organism-based"}, "Mus musculus [11]": {"tested_on": "Mus musculus", "test": "Hepatotoxicity in BALB/c mouse infected with bloodstream trypomastigote form of Trypanosoma cruzi IRHOD/CO/2008/SN3 assessed as hepatic destruction in portal space at 5 mg/kg/day, ip administered for 5 days measured 150 days post-infection by light microscopic analysis", "format": "toxicity, organism-based", "design": "route intraperitoneal", "details": "in vivo, 3600 h"}, "Mus musculus [12]": {"tested_on": "Mus musculus", "test": "Hepatotoxicity in BALB/c mouse infected with bloodstream trypomastigote form of Trypanosoma cruzi IRHOD/CO/2008/SN3 assessed as centrilobular destruction of hepatic vein at 5 mg/kg/day, ip administered for 5 days measured 150 days post-infection by light microscopic analysis", "format": "toxicity, organism-based", "design": "route intraperitoneal", "details": "in vivo, 3600 h"}, "Mus musculus [13]": {"tested_on": "Mus musculus", "test": "Hepatotoxicity in BALB/c mouse infected with bloodstream trypomastigote form of Trypanosoma cruzi IRHOD/CO/2008/SN3 assessed as lymphocytic infiltration in portal tracts at 5 mg/kg/day, ip administered for 5 days measured 150 days post-infection by light microscopic analysis", "format": "toxicity, organism-based", "design": "route intraperitoneal", "details": "in vivo, 3600 h"}, "Mus musculus [14]": {"tested_on": "Mus musculus", "test": "Hepatotoxicity in BALB/c mouse infected with bloodstream trypomastigote form of Trypanosoma cruzi IRHOD/CO/2008/SN3 assessed as vessels with thickened walls at 5 mg/kg/day, ip administered for 5 days measured 150 days post-infection by light microscopic analysis", "format": "toxicity, organism-based", "design": "route intraperitoneal", "details": "in vivo"}, "Trypanosoma cruzi [15]": {"tested_on": "Trypanosoma cruzi", "test": "Trypanocidal activity against bloodstream trypomastigote form of Trypanosoma cruzi IRHOD/CO/2008/SN3 infected in BALB/c mouse assessed as reduction of parasite load in liver at 5 mg/kg/day, ip administered for 5 days measured 150 days post-infection by PCR analysis", "format": "functional, organism-based"}, "Trypanosoma cruzi [16]": {"tested_on": "Trypanosoma cruzi", "test": "Trypanocidal activity against bloodstream trypomastigote form of Trypanosoma cruzi IRHOD/CO/2008/SN3 infected in cyclophosphamide monohydrate-treated BALB/c immunosuppression mouse model assessed as reduction of parasite load in liver at 5 mg/kg/day, ip administered for 5 days measured 150 days post-infection by PCR analysis", "format": "functional, organism-based"}, "Trypanosoma cruzi [17]": {"tested_on": "Trypanosoma cruzi", "test": "Trypanocidal activity against bloodstream trypomastigote form of Trypanosoma cruzi IRHOD/CO/2008/SN3 infected in cyclophosphamide monohydrate-treated BALB/c immunosuppression mouse model assessed as reduction of parasite load in heart at 5 mg/kg/day, ip administered for 5 days measured 150 days post-infection by PCR analysis", "format": "functional, organism-based"}, "Trypanosoma cruzi [18]": {"tested_on": "Trypanosoma cruzi", "test": "Trypanocidal activity against bloodstream trypomastigote form of Trypanosoma cruzi IRHOD/CO/2008/SN3 infected in BALB/c mouse assessed as reduction of parasite load in heart at 5 mg/kg/day, ip administered for 5 days measured 150 days post-infection by PCR analysis", "format": "functional, organism-based"}, "Trypanosoma cruzi [19]": {"tested_on": "Trypanosoma cruzi", "test": "Trypanocidal activity against bloodstream trypomastigote form of Trypanosoma cruzi IRHOD/CO/2008/SN3 infected in cyclophosphamide monohydrate-treated BALB/c immunosuppression mouse model assessed as reactivation of parasitemia level at 5 mg/kg/day, ip administered for 5 days measured 150 days post-infection (reference value: 91.7 %)", "format": "functional", "details": "route intraperitoneal"}, "Trypanosoma cruzi [20]": {"tested_on": "Trypanosoma cruzi", "test": "Trypanocidal activity against bloodstream trypomastigote form of Trypanosoma cruzi IRHOD/CO/2008/SN3 infected in BALB/c mouse assessed as reduction of anti-parasitic Ig-G level in serum at 5 mg/kg/day, ip administered for 5 days measured over 40 to 120 days post-infection by ELISA", "format": "functional, organism-based"}, "Trypanosoma cruzi [21]": {"tested_on": "Trypanosoma cruzi", "test": "Trypanocidal activity against bloodstream trypomastigote form of Trypanosoma cruzi IRHOD/CO/2008/SN3 infected in BALB/c mouse assessed as reduction of circulating parasite burden at 5 mg/kg, ip administered for 5 to 10 days measured 22 to 60 days post-infection by Neubauer hemocytometric analysis", "format": "functional, organism-based", "design": "dose 5 mg/kg"}, "Trypanosoma cruzi [22]": {"tested_on": "Trypanosoma cruzi", "test": "Trypanocidal activity against trypomastigote form of Trypanosoma cruzi IRHOD/CO/2008/SN3 infected in African green monkey Vero cells assessed as inhibition of trypomastigotes released in culture medium at IC25 relative to control", "format": "functional"}, "Trypanosoma cruzi [23]": {"tested_on": "Trypanosoma cruzi", "test": "Trypanocidal activity against amastigote form of Trypanosoma cruzi IRHOD/CO/2008/SN3 infected in African green monkey Vero cells assessed as inhibition of amastigotes load per cell at IC25 preincubated for 12 hrs followed by compound washout measured after 10 days by Giemsa staining-based microscopic analysis relative to control", "format": "functional"}, "Trypanosoma cruzi [24]": {"tested_on": "Trypanosoma cruzi", "test": "Trypanocidal activity against amastigote form of Trypanosoma cruzi IRHOD/CO/2008/SN3 infected in African green monkey Vero cells assessed as inhibition of parasite infection rate at IC25 preincubated for 12 hrs followed by compound washout measured after 10 days by Giemsa staining-based microscopic analysis relative to control", "format": "functional"}, "Vero": {"tested_on": "Vero", "test": "Cytotoxicity against African green monkey Vero cells after 72 hrs by flow cytometric analysis", "format": "cell-based", "details": "Chlorocebus sabaeus"}, "Mus musculus [25]": {"tested_on": "Mus musculus", "test": "Hepatotoxicity in BALB/c mouse infected with bloodstream trypomastigote form of Trypanosoma cruzi IRHOD/CO/2008/SN3 assessed as interstitial hemorrhage at 5 mg/kg/day, ip administered for 5 days measured 150 days post-infection by light microscopic analysis", "format": "toxicity, organism-based", "design": "route intraperitoneal", "details": "in vivo, 3600 h"}, "Trypanosoma cruzi [26]": {"tested_on": "Trypanosoma cruzi", "test": "Trypanocidal activity against epimastigote form of Trypanosoma cruzi IRHOD/CO/2008/SN3 assessed as inhibition of lactate excretion at IC25 after 96 hrs by NMR spectra analysis", "format": "functional, organism-based"}, "Trypanosoma cruzi [27]": {"tested_on": "Trypanosoma cruzi", "test": "Trypanocidal activity against epimastigote form of Trypanosoma cruzi IRHOD/CO/2008/SN3 assessed as inhibition of alanine excretion at IC25 after 96 hrs by NMR spectra analysis", "format": "functional, organism-based"}}, "note": "pIC50: −log10 of the molar value. Active and inactive are the calls of the source. The rule behind the calls is not given here."}
{"smiles": "Cl.c1cncc(CNCCN2CCNCc3cccc(n3)CNCC2)c1", "values": [{"measurement": "pIC50", "setting": "Trypanosoma cruzi [1]", "value": 4.71}, {"measurement": "pIC50", "setting": "Trypanosoma cruzi [2]", "value": 5.02}, {"measurement": "pIC50", "setting": "Trypanosoma cruzi [3]", "value": 5.10}, {"measurement": "Activity", "setting": "Trypanosoma cruzi [4]", "value": "Active"}, {"measurement": "pIC50", "setting": "[5]", "value": 4.20}, {"measurement": "inhibition", "setting": "Trypanosoma cruzi [6]", "value": 100, "unit": "%"}, {"measurement": "Activity", "setting": "Trypanosoma cruzi [7]", "value": "Active"}, {"measurement": "Activity", "setting": "Trypanosoma cruzi [8]", "value": "Active"}, {"measurement": "Activity", "setting": "Trypanosoma cruzi [9]", "value": "Active"}, {"measurement": "Activity", "setting": "Trypanosoma cruzi [10]", "value": "Active"}, {"measurement": "Activity", "setting": "Mus musculus [11]", "value": "Non-toxic"}, {"measurement": "Activity", "setting": "Mus musculus [12]", "value": "Non-toxic"}, {"measurement": "Activity", "setting": "Mus musculus [13]", "value": "Toxic"}, {"measurement": "Activity", "setting": "Mus musculus [14]", "value": "Toxic"}, {"measurement": "Activity", "setting": "Trypanosoma cruzi [15]", "value": "Active"}, {"measurement": "Activity", "setting": "Trypanosoma cruzi [16]", "value": "Active"}, {"measurement": "Activity", "setting": "Trypanosoma cruzi [17]", "value": "Active"}, {"measurement": "Activity", "setting": "Trypanosoma cruzi [18]", "value": "Active"}, {"measurement": "Activity", "setting": "Trypanosoma cruzi [19]", "value": 5.6, "unit": "%"}, {"measurement": "Activity", "setting": "Trypanosoma cruzi [20]", "value": "Active"}, {"measurement": "Activity", "setting": "Trypanosoma cruzi [21]", "value": "Active"}, {"measurement": "inhibition (INH)", "setting": "Trypanosoma cruzi [22]", "value": 89, "unit": "%"}, {"measurement": "inhibition (INH)", "setting": "Trypanosoma cruzi [23]", "value": 69, "unit": "%"}, {"measurement": "inhibition (INH)", "setting": "Trypanosoma cruzi [24]", "value": 86, "unit": "%"}, {"measurement": "pIC50", "setting": "Vero", "value": 3.37}, {"measurement": "Activity", "setting": "Mus musculus [25]", "value": "Non-toxic"}, {"measurement": "inhibition", "setting": "Trypanosoma cruzi [26]", "value": "Active"}, {"measurement": "inhibition", "setting": "Trypanosoma cruzi [27]", "value": "Active"}]}
